Columns and labels:
[1] = tested on: mitochondria of SD neonatal rat primary cardiomyocytes; assay: [^19F]HX-01 localization with red mitochondrial probe M7513 in primary cardiomyocytes; format: cell-based; conditions: 4 μM, 10 min, cardiomyocytes and surrounding mixed cells
Procedure: The suspension of primary myocardial cells of SD suckling mice was adjusted to the concentration of 20×10^4/ml, inoculated in a six-well plate, with 2 ml for each well, and then incubated at 37° C. in 5% CO2 under saturated humidity for 24 h. After adherence, the DMEM high glucose medium in each well was aspirated and discarded, and DMEM high glucose medium containing different concentrations of [^19F]HX-01 (6.25, 12.5, 25, 50, 100, 150, and 200 μM) was firstly added, with 2 ml for each well, and each concentration has three replicate wells. After incubation at 37° C. in 5% CO2 under saturated humidity for 1 h, the liquid in each well was aspirated and removed. […] After the wells were washed three times with PBS, the cells were finally observed under a confocal fluorescence microscope with an excitation wavelength of 488 nm.
In order to further clarify the localization characteristics of [^19F]HX-01 in the subcellular organelles of SD rat primary cardiomyocytes, after addition of above different concentrations of [^19F]HX-01 and incubation for 1 h, the medium was discarded, and each well was rinsed with PBS three times. Each well was added the medium containing mitochondrial specific probe with red fluorescence (Mito Tracker Red (M7513), Thermo fisher) and incubated for another 10 min, the medium was removed, and each well was rinsed with PBS three times. […]

[2] = SD rat myocardial infarction model, 350 μCi/rat, up to 120 min
rat cardiomyocytes H9C2 = assay: [^18F]HX-01 uptake in H9C2 cells, with and without CCCP (γ counter); format: cell-based
Procedure: As described in method 1.4.4, the suspension of rat cardiomyocytes H9C2, NIH3T3 cells and SD neonatal rat primary cardiomyocytes was adjusted to the concentration of 20×10^4/ml, inoculated in a six-well plate, with 2 ml for each well (containing 4×10^5 cells), and the experimental group and CCCP inhibition group were included, The plate was cultured at 37° C. in 5% CO2 under saturated humidity for 24 h. After the cells adhered, 30 minutes before addition of [^18F]HX-01, the DMEM high-glucose medium in the Petri dish was aspirated and discarded. DMEM high-glucose medium containing CCCP (0.5 μM) was firstly added at 2 ml/well to the cell culture dish in CCCP inhibition group, while an equal volume of DMEM high-glucose medium without CCCP was added to the cell culture dish in the experimental groups, and the dish was incubated at 37° C. in 5% CO2 under saturated humidity for 30 min. Then, 100 μl solution of [^18F]HX-01 dissolved in saline was added to each well at a dose of 2.5 μCi. The plate was incubated at 37° C. in 5% CO2 under saturation humidity. […] After digestion with 0.25% trypsin, all cells were collected in the radioimmunotubes, and the radioactivity counts of the liquid and cells in the wells were measured with a γ counter, and the data were recorded. […]

[3] = Competitive inhibition test of [^18F]HX-01 and non-radioactive standard [^19F]HX-01 (PET); format: in vivo, New Zealand white rabbit; conditions: [^19F]HX-01 1 nmol/kg i.v. 30 min before tracer
Procedure: After anesthesia and fixation, the male New Zealand white rabbits were set as their own control (n=3). On the first day, 2 ml saline was injected into the ear marginal vein of the rabbits. Then, the tracer [^18F]HX-01 was injected, and the dosage was 0.5 mci/kg, and PET scanning was performed immediately as described in 1.4.2. On the second day, non-radioactive standard [^19F]HX-01 was injected through ear edge vein, and the dose of standard substance was 1 nmol/kg, that was dissolved in 2 ml normal saline. 30 min After injection of non-radioactive standard [^19F]HX-01, the tracer [^18F]HX-01 was injected, and the injection doe was 0.5 mCi/kg. After the injection, PET dynamic scanning was performed as described in 1.4.2. […] Using Compassview 5.0 to analyze and process the data, the brain, heart, liver, lung, kidney, bone and muscle of the region of interest (ROI) were drawn on the horizontal axis, and SUVmax was recorded.

[4] = tested on: SD neonatal rat primary cardiomyocytes; assay: [^18F]HX-01 uptake in SD neonatal rat primary cardiomyocytes, with and without CCCP (γ counter); format: cell-based
Procedure: (§1) As described in method 1.4.4, the suspension of rat cardiomyocytes H9C2, NIH3T3 cells and SD neonatal rat primary cardiomyocytes was adjusted to the concentration of 20×10^4/ml, inoculated in a six-well plate, with 2 ml for each well (containing 4×10^5 cells), and the experimental group and CCCP inhibition group were included, The plate was cultured at 37° C. in 5% CO2 under saturated humidity for 24 h. After the cells adhered, 30 minutes before addition of [^18F]HX-01, the DMEM high-glucose medium in the Petri dish was aspirated and discarded. DMEM high-glucose medium containing CCCP (0.5 μM) was firstly added at 2 ml/well to the cell culture dish in CCCP inhibition group, while an equal volume of DMEM high-glucose medium without CCCP was added to the cell culture dish in the experimental groups, and the dish was incubated at 37° C. in 5% CO2 under saturated humidity for 30 min. Then, 100 μl solution of [^18F]HX-01 dissolved in saline was added to each well at a dose of 2.5 μCi. The plate was incubated at 37° C. in 5% CO2 under saturation humidity. After incubation for 5 min, 10 min, 30 min, 60 min and 120 min, the liquid in the well was collected, and rinsed 3 times with PBS, and all the rinse liquid was collected in the radioimmunotubes. After digestion with 0.25% trypsin, all cells were collected in the radioimmunotubes, and the radioactivity counts of the liquid and cells in the wells were measured with a γ counter, and the data were recorded. Three replicate holes were set for each time point.

[5] = rabbit, in vivo
mouse fibroblasts NIH3T3 = assay: [^18F]HX-01 uptake in NIH3T3 cells, with and without CCCP (γ counter); format: cell-based
Procedure: as §1

SMILES | distribution of red fluorescence of the probe [1] | Micro PET image of anterior wall of left ventricle near apical area (infarction) [2] | uptake percentage (peak value) (rat cardiomyocytes H9C2; 120 min, 2.5 μCi per well) | uptake percentage, control group vs CCCP inhibition group (rat cardiomyocytes H9C2; CCCP 0.5 μM 30 min before tracer) | kidney uptake (SUVmax), inhibition group vs control group [3] | liver uptake (SUVmax), inhibition group vs control group [3] | myocardial uptake (SUVmax), inhibition group vs control group ([3]; P<0.001) | lung, bone, muscle and brain uptake (SUVmax), inhibition group vs control group ([3]; P>0.05) | uptake percentage ([4]; 30 min) | uptake percentage (peak value) ([4]; 120 min) | intake percentage, normal group vs CCCP inhibition group ([4]; CCCP 0.5 μM, p>0.05) | SUVmax ratio of heart/lung [5] | SUVmax ratio of heart/muscle [5] | uptake in other tissues such as brain, lung, muscle and bone [5] | uptake percentage (mouse fibroblasts NIH3T3; 5 min) | uptake percentage (mouse fibroblasts NIH3T3; 120 min) | uptake, normal group vs CCCP inhibition group (mouse fibroblasts NIH3T3; CCCP 0.5 μM, p>0.05)
ClCc1ccc(C2=c3cc4c5c(c3Oc3c2cc2c6c3CCCN6CCC2)CCC[N+]=5CCC4)cc1.[Cl-] [M7513] | appeared in the mitochondria of all cells in a granular distribution | – | – | – | – | – | – | – | – | – | – | – | – | – | – | – | –
COc1c(OCCC[18F])ccc2cc3[n+](cc12)CCc1cc2c(cc1-3)OCO2.[Cl-] [[^18F]HX-01] | – | showed a fixed radioactive defect | 2.89%±0.11% | didn't show significant difference in the uptake percentage | no statistical significance between the two groups | no statistical significance between the inhibition group and the control group | SUVmax value was obviously reduced | not statistically significant | 2.08%±0.13% | 2.41%±0.03% | no significant difference in the intake percentage | greater than 10 | greater than 10 | extremely low | 0.78±0.06 | 0.91±0.01 | did not show a significant difference

Source: patent US11141496B2, “Use of berberine or derivative thereof in preparing myocardial perfusion imaging agent” (WEST CHINA HOSPITAL, SICHUAN UNIVERSITY, priority 2017, dated 2021)
